Measurements as given in US8373006B2, “Anti-leishmanial compound and anti-leishmanial drug” (Aoyama Gakuin Educational Foundation, priority 2010, dated 2013).

Key:
[1] = system: L. major/egfp promastigotes; assay: Analysis of in vitro anti-leishmanial activity (growth inhibition, egfp fluorescence); assay type: cell-based, Leishmania major; conditions: 25° C., 72 h, Amphotericin B positive control defined as 100%, FIG. 9
Description: The compounds represented by formulas (1) to (6), which had been isolated by the procedure described above, were subjected to an analysis of the physiological activity under the conditions that are described below. Leishmania major promastigotes were selected as the Leishmania protozoa, and a L. major/egfp promastigotes in which a fluorescent protein egfp gene had been introduced was used. The compounds mentioned above were used as samples. Thus, the growth inhibition rate was determined under the following conditions.
L. major/egfp promastigotes were maintained at 25° C. using a 96-well plate, in 199 medium (NISSUI Pharmaceutical) containing 10% fetal bovine serum 25 mM and Hepes buffer (ICN Biomedeivals, Inc., Aurora, Ohio) and 10 μg/mL Tunicamycin (SIGMA-ALDRICH, inc., USA). Subsequently, to each well of 96-well plates containing 100 μL of L. major/egfp suspension with 1×10^6 cells/mL, 100 μL of test solution (sample dissolved in DMSO) was added, and the plates were incubated at 25° C. for 72 h. Thereafter, Fluorescence signals of L. major/egfp promastigotes were measured with a fluorescence microplate reader (Fluoroscan Ascent FL, Dainippon Pharmaceutical Co.) with excitation at 485 nm and emission at 538 nm. […]

[2] = system: L. major PM2; assay: Analysis of in vivo anti-leishmanial activity in leishmaniasis mouse model; conditions: Balb/c mice infected with L. major PM2; 200 μg by peritoneal injection once a day for three weeks; FIG. 10-12
Description: In order to evaluate the in vivo anti-leishmanial activity of the compound represented by formula (3), which had been isolated by the procedure described above, a leishmaniasis mouse model was used to investigate the therapeutic effect. Six-week old mice (Balb/c, male, 6 animals per group) were infected with 1×10^7 cells of cultured promastigotes of L. major PM2. From the day after the infection day, the compound represented by the formula (3) was administered to each specimen in an amount of 200 [μg by peritoneal injection. The administration schedule was such that the compound was continuously administered once a day for three weeks. Further, as control, the same analysis was carried out also for a treatment group to which Amphotericin B was administered, and for a treatment group to which none was administered.

CC(C)=CCC/C(C)=C/CC/C(C)=C/CC/C(C)=C/CC1(CC(=O)O)CC(=O)C=CC1=O (centres unmarked) [formula (3)]
growth inhibition rate [1]: almost equal to the growth inhibition rate of Amphotericin B
in vivo anti-leishmanial activity (size of ulcer, antibody titer in blood, protozoan DNA in blood) [2]: equal to that of Amphotericin B
